# Experimental data as given in patent US20200299671A1, “IMMOBILIZED MULTI-ENZYMATIC HALOGENATION SYSTEM” (priority 2019, published 2020).
# Test system: PltM K87A
# Assay: Cell-based activity assay (Assay 3), PltM K87A
# Set-up: species or system E. coli BL21 (DE3)
# Settings: cultures expressing PltM K87A
# Procedure: E. coli BL21 (DE3) cells were transformed with ppltM-pET28a, ppltMK87A-pET28a, ppltML111Y-pET28a, ppltMS404Y-pET28a, and ppltA-pET28a. The ppltA-pET28a plasmid overexpressing the halogenase PltA whose substrate is pyrrolyl-S-PltL (a peptidyl carrier protein-linked pyrrole) was used as a negative control. Five colonies from each transformant were cultured in 2×500 mL of LB medium (for ppltM-pET28a, ppltML111Y-pET28a, and ppltMS404Y-pET28a) and 1×500 mL of LB medium (for ppltMK87A-pET28a and ppltA-pET28a) with 50 μg/mL kanamycin at 37° C. and 200 rpm until attenuance of 0.2 at 600 nm. The cultures were then moved to 25° C. until attenuance of 0.5. Protein expression was induced by adding 0.2 mM IPTG to all […] flasks, and the cultures were incubated with shaking for 1 h. 12.5 μg/mL of compound 1 was added to 1×500 mL of LB medium containing ppltM-pET28a, ppltMK87A-pET28a, ppltML111Y-pET28a, ppltMS404Y-pET28a, and ppltA-pET28a. Compound 1 was not added to the three remaining flasks (negative controls). After additional incubation for 20 h, the cells were pelleted at 5,000 g for 10 min, and the supernatant was collected. The supernatant was extracted with EtOAc (3×330 mL), which was dried in vacuo. […]
# The halogenation reaction products were analyzed by HPLC or LC-MS by injecting 10 μL of each sample. […]
# For HPLC analysis, the molecules were observed by absorbance at λ=275 nm as described above. […]
compound,measurement,value
"Oc1cc(O)cc(O)c1 [Compound 1, phloroglucinol]",halogenation in fermentation culture,No halogenated product was observed
